Drawing on patent US10112944B2, “Heterocyclic compounds useful as inhibitors of TNF” (BRISTOL-MYERS SQUIBB COMPANY, priority 2015, dated 2018), this text covers IC50 for 30 compounds.

Each structure is given as a SMILES string.

TNFα, sequence (P01375 77-233): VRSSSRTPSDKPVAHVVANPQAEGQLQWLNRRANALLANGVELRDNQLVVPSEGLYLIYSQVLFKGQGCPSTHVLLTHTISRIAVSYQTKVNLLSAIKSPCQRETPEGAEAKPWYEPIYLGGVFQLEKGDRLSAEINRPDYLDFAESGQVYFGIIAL

The assay deals with TNFα (Homo sapiens (Human), UniProt P01375). Kind of assay: TNF induced HEK-Blue assay. Type of assay: cell-based. To be noted: HEK-Blue-CD40L cells, TNFα 0.5 ng/ml, NF-κB-driven secreted alkaline phosphatase reporter, 18 h. As for the experimental part:
TNF or CD40L-Induced HEK-Blue Assay
Test compounds serially diluted in DMSO were plated in an assay plate (Labcyte, Cat. #LP-0200) at final concentrations ranging from 0.004 μM to 25 μM. TNFα (final concentration 0.5 ng/ml) or CD40L (final concentration 30 ng/ml) in assay buffer [DMEM, 4.5 g/l glucose (Gibco, Cat. 21063-029), 10% FBS (Sigma, F4135), 1% Penicillin-Streptomycin (Gibco, Cat. 15140-122), 1% Anti-Anti (Gibco, Cat. 15240-112) and 2 mM L-glutamine (Gibco, Cat. 25030-081)] was then added to the assay plate. After a 30 minute pre-incubation at 37° C. and 5% CO2, HEK-Blue-CD40L cells (InvivoGen, Cat. Code hkb-cd40) containing a NF-κB-driven secreted alkaline phosphatase reporter gene were seeded into the assay plate at a density of 20,000 cells per well. This plate was then incubated for 18 h at 37° C. and 5% CO2. Secreted alkaline phosphatase expression was measured using QUANTI-Blue (InvivoGen, Cat. Code rep-qbl) according to manufacturer's specifications and the assay plate was read on a PerkinElmer Envision at 620 nm.
Inhibition data for the test compound over a range of concentrations was plotted as percentage inhibition of the test compound (100%=maximum inhibition). IC50 values were determined after correcting for background [(sample read−mean of low control)/(mean of high control−mean of low control)] where by the low control is DMSO without stimulation and high control is DMSO with stimulation. The IC50 is defined as the concentration of test compound which produces 50% inhibition and was quantified using the 4 parameter logistic equation to fit the data.
Regarding `Cc1cc2nc3c(n2cc1-c1cnn(C)c1)N(c1ccccc1OC(F)F)CCC3` [Example 4, 1-(2-(Difluoromethoxy)phenyl)-7-methyl-8-(1-methyl-1H-pyrazol-4-yl)-1,2,3,4-tetrahydroimidazo[1,2-a:5,4-b′]dipyridine], the half-maximal inhibitory concentration (IC50) (usually the midpoint of a concentration-inhibition curve) lay within 1000 to 10000 nM.

`COc1ccc(-c2ccc3nc4c(n3c2)N(c2cccc(C)c2C)CCC4)cn1` [Example 24, 1-(2,3-Dimethylphenyl)-8-(6-methoxypyridin-3-yl)-1,2,3,4-tetrahydroimidazo [1,2-a:5,4-b′]dipyridine] came in with an IC50 of 1000 to 10000 nM.

In the case of `Cc1ccc(C)c(N2CCC(C)c3nc4ccc(-c5cnn(C)c5)cn4c32)c1` (stereo not drawn) [Example 39, 1-(2,5-Dimethylphenyl)-4-methyl-8-(1-methyl-1H-pyrazol-4-yl)-1,2,3,4-tetrahydroimidazo[1,2-a:5,4-b′]dipyridine], the IC50 is under 1000 nM.

`COc1ccc(-c2ccc3nc4c(n3c2)N(c2cc(C)ccc2C)CCC4C)cn1` (stereo not drawn) [Example 37, 1-(2,5-Dimethylphenyl)-8-(6-methoxypyridin-3-yl)-4-methyl-1,2,3,4-tetrahydroimidazo[1,2-a:5,4-b′]dipyridine] displayed a 50% inhibitory concentration (IC50) of under 1000 nM.

`Cc1ccc(C)c(N2CCCc3nc4ccc(-c5ccc(-c6nnc(C)o6)cc5)cn4c32)c1` [Example 16, 2-(4-(1-(2,5-Dimethylphenyl)-1,2,3,4-tetrahydroimidazo[1,2-a:5,4-b′]dipyridin-8-yl)phenyl)-5-methyl-1,3,4-oxadiazole] came in with an IC50 of under 1000 nM.

As for `COc1ccc(-c2ccc3nc4c(n3c2)N(c2ccccc2OC(F)(F)F)CCC4)cn1` [Example 10, 8-(6-Methoxypyridin-3-yl)-1-(2-(trifluoromethoxy)phenyl)-1,2,3,4-tetrahydroimidazo[1,2-a:5,4-b′]dipyridine], the IC50 was under 1000 nM.

For the compound `CC(C)(O)c1ccc(-c2ccc3nc4c(n3c2)N(c2ccccc2OC(F)F)CCC4)cc1` [Example 35, 2-(4-(1-(2-(Difluoromethoxy)phenyl)-1,2,3,4-tetrahydroimidazo[1,2-a:5,4-b′]dipyridin-8-yl)phenyl)propan-2-ol], the IC50 is under 1000 nM.

Regarding `Cc1ccc(C)c(N2CCCc3nc4c(C)c(C)c(-c5cnc(N6CCOCC6)nc5)cn4c32)c1` [Example 41, 4-(5-(1-(2,5-Dimethylphenyl)-6,7-dimethyl-1,2,3,4-tetrahydroimidazo [1,2-a:5,4-b′]dipyridin-8-yl)pyrimidin-2-yl)morpholine], the IC50 is 1000 to 10000 nM.

`CC(C)(O)c1ncc(-c2cn3c4c(nc3cc2Cl)CCCN4c2ccccc2)cn1` [Example 21, 2-(5-(7-Chloro-1-phenyl-1,2,3,4-tetrahydroimidazo[1,2-a:5,4-b′]dipyridin-8-yl)pyrimidin-2-yl)propan-2-ol] yielded an IC50 of under 1000 nM.

The compound `COc1ccc(-c2ccc3nc4c(n3c2)N(c2cc(C)ccc2OC)CCC4)cn1` [Example 7, 1-(2-Methoxy-5-methylphenyl)-8-(6-methoxypyridin-3-yl)-1,2,3,4-tetrahydroimidazo [1,2-a:5,4-b′]dipyridine] had an IC50 of under 1000 nM.

On to `COc1ccc(-c2ccc3nc4c(n3c2)N(c2cc(C(F)(F)F)ccc2C)CCC4)cn1` [Example 11, 8-(6-Methoxypyridin-3-yl)-1-(2-methyl-5-(trifluoromethyl)phenyl)-1,2,3,4-tetrahydroimidazo[1,2-a:5,4-b′]dipyridine], for which the IC50 fell in the range of 1000 to 10000 nM.

`COc1ccc(-c2ccc3nc4c(n3c2)N(c2ccc(F)cc2C)CCC4)cn1` [Example 26, 1-(4-Fluoro-2-methylphenyl)-8-(6-methoxypyridin-3-yl)-1,2,3,4-tetrahydroimidazo [1,2-a:5,4-b′]dipyridine] came in with an IC50 of under 1000 nM.

`COc1ccc(-c2ccc3nc4c(n3c2)N(c2ccccc2OC(F)F)CCC4C)cn1` (stereo not drawn) [Example 38, 1-(2-(Difluoromethoxy)phenyl)-8-(6-methoxypyridin-3-yl)-4-methyl-1,2,3,4-tetrahydroimidazo[1,2-a:5,4-b′]dipyridine] gave an IC50 of under 1000 nM.

For `COc1ccc(-c2ccc3nc4c(n3c2)N(c2cc(C)ccc2OC(F)F)CCC4)cn1` [Example 20, 1-(2-(Difluoromethoxy)-5-methylphenyl)-8-(6-methoxypyridin-3-yl)-1,2,3,4-tetrahydroimidazo[1,2-a:5,4-b′]dipyridine], the IC50 is under 1000 nM.

The compound `CCc1ccccc1N1CCCc2nc3ccc(-c4ccc(OC)nc4)cn3c21` [Example 28, 1-(2-Ethylphenyl)-8-(6-methoxypyridin-3-yl)-1,2,3,4-tetrahydroimidazo [1,2-a:5,4-b′]dipyridine] displayed an IC50 of under 1000 nM.

In turn, `COc1ccc(-c2ccc3nc4c(n3c2)N(c2cc(F)ccc2C)CCC4)cn1` [Example 25, 1-(5-Fluoro-2-methylphenyl)-8-(6-methoxypyridin-3-yl)-1,2,3,4-tetrahydroimidazo [1,2-a:5,4-b′]dipyridine] showed a concentration for half-maximal inhibition (IC50) of under 1000 nM.

`COc1ccc(-c2cn3c4c(nc3cc2Cl)CCCN4c2ccccc2OC(F)F)cn1` [Example 22, 7-Chloro-1-(2-(difluoromethoxy)phenyl)-8-(6-methoxypyridin-3-yl)-1,2,3,4-tetrahydroimidazo[1,2-a:5,4-b′]dipyridine] displayed a half-maximal inhibitory concentration (IC50) of 1000 to 10000 nM.

With `COc1ccc(-c2ccc3nc4c(n3c2)N(c2ccccc2C)CCC4)cn1` [Example 9, 8-(6-Methoxypyridin-3-yl)-1-(o-tolyl)-1,2,3,4-tetrahydroimidazo[1,2-a:5,4-b′]dipyridine], the half-inhibitory concentration (IC50) is under 1000 nM.

In the case of `Cc1ccc(C)c(N2CCCc3nc4ccc(-c5cnn(C)c5)cn4c32)c1` [Example 12, 1-(2,5-Dimethylphenyl)-8-(1-methyl-1H-pyrazol-4-yl)-1,2,3,4-tetrahydroimidazo [1,2-a:5,4-b′]dipyridine], the IC50 was under 1000 nM.

`CC1CCN(c2ccccc2OC(F)F)c2c1nc1ccc(-c3cnn(C)c3)cn21` (stereo not drawn) [Example 40, 1-(2-(Difluoromethoxy)phenyl)-4-methyl-8-(1-methyl-1H-pyrazol-4-yl)-1,2,3,4-tetrahydroimidazo[1,2-a:5,4-b′]dipyridine]: the IC50 is under 1000 nM.

For the compound `COc1ccc(-c2ccc3nc4c(n3c2)N(c2ccccc2Cl)CCC4)cn1` [Example 31, 1-(2-Chlorophenyl)-8-(6-methoxypyridin-3-yl)-1,2,3,4-tetrahydroimidazo[1,2-a:5,4-b′]dipyridine], the IC50 is under 1000 nM.

Compound `COc1ccc(-c2cn3c4c(nc3cc2Cl)CCCN4c2cc(C)ccc2C)cn1` [Example 23, 7-Chloro-1-(2,5-dimethylphenyl)-8-(6-methoxypyridin-3-yl)-1,2,3,4-tetrahydroimidazo[1,2-a:5,4-b′]dipyridine] displayed a half-maximal inhibitory concentration (IC50) of 1000 to 10000 nM.

Consider `COc1ccc(-c2ccc3nc4c(n3c2)N(c2ccccc2OC(F)F)CCC4)cn1` [Example 6, 1-(2-(Difluoromethoxy)phenyl)-8-(6-methoxypyridin-3-yl)-1,2,3,4-tetrahydroimidazo[1,2-a:5,4-b′]dipyridine], for which the IC50 is under 1000 nM.

Compound `Cc1ccc(C)c(N2CCCc3nc4ccc(-c5cnc(C(C)(C)O)nc5)cn4c32)c1` [Example 18, 2-(5-(1-(2,5-Dimethylphenyl)-1,2,3,4-tetrahydroimidazo[1,2-a:5,4-b′]dipyridin-8-yl)pyrimidin-2-yl)propan-2-ol] gave a concentration for half-maximal inhibition (IC50) of under 1000 nM.

`Cc1ccc(C)c(N2CCCc3nc4ccc(-c5ccc(C(C)(C)O)cc5)cn4c32)c1` [Example 36, 2-(4-(1-(2,5-Dimethylphenyl)-1,2,3,4-tetrahydroimidazo[1,2-a:5,4-b′]dipyridin-8-yl)phenyl)propan-2-ol] gave an IC50 of 1000 to 10000 nM.

Turning to `Cc1ccc(C)c(N2CCCc3nc4cc(C)c(-c5cnn(C)c5)cn4c32)c1` [Example 3, 1-(2,5-Dimethylphenyl)-7-methyl-8-(1-methyl-1H-pyrazol-4-yl)-1,2,3,4-tetrahydroimidazo[1,2-a:5,4-b′]dipyridine], the 50% inhibitory concentration (IC50) was under 1000 nM.

Turning to `FC(F)Oc1ccccc1N1CCCc2nc3ccc(-c4cnc(N5CCOCC5)nc4)cn3c21` [Example 15, 4-(5-(1-(2-(Difluoromethoxy)phenyl)-1,2,3,4-tetrahydroimidazo[1,2-a:5,4-b′]dipyridin-8-yl)pyrimidin-2-yl)morpholine], the concentration for half-maximal inhibition (IC50) was under 1000 nM.

`Cc1nnc(-c2ccc(-c3ccc4nc5c(n4c3)N(c3ccccc3OC(F)F)CCC5)cc2)o1` [Example 17, 2-(4-(1-(2-(Difluoromethoxy)phenyl)-1,2,3,4-tetrahydroimidazo[1,2-a:5,4-b′]dipyridin-8-yl)phenyl)-5-methyl-1,3,4-oxadiazole] came in with an IC50 of under 1000 nM.

On to `Cn1cc(-c2ccc3nc4c(n3c2)N(c2ccccc2OC(F)F)CCC4)cn1` [Example 13, 1-(2-(Difluoromethoxy)phenyl)-8-(1-methyl-1H-pyrazol-4-yl)-1,2,3,4-tetrahydroimidazo[1,2-a:5,4-b′]dipyridine], for which the IC50 is under 1000 nM.

Turning to `COc1ccc(-c2ccc3nc4c(n3c2)N(c2cc(C)ccc2C)CCC4)cn1` [Example 5, 1-(2,5-Dimethylphenyl)-8-(6-methoxypyridin-3-yl)-1,2,3,4-tetrahydroimidazo [1,2-a:5,4-b′]dipyridine], the half-maximal inhibitory concentration (IC50) was under 1000 nM.
